Laboratory results as given in ChEMBL document CHEMBL1134724, “Novel (4-piperazin-1-ylquinolin-6-yl) arylsulfonamides with high affinity and selectivity for the 5-HT(6) receptor” (Bioorg Med Chem Lett, 2001).

Key:
[1] = Selectivity ratio as antilogarithm of smallest difference between the pKi value at 5-HT6 receptor and range of comparator receptors
[2] = molecular target: T1, 5-hydroxytryptamine receptor 6 (Homo sapiens, UniProt P50406); assay: Binding affinity against human 5-hydroxytryptamine 6 receptor
[3] = molecular target: T1, 5-hydroxytryptamine receptor 6; assay: Binding affinity to human cloned 5-HT6 receptor in HeLa cells using [3H]- LSD as radioligand; type: cell-based
[4] = molecular target: 5-hydroxytryptamine receptor 1D (Homo sapiens, UniProt P28221); assay: Binding affinity to human cloned 5-hydroxytryptamine 1D receptor in CHO cells using [3H]5-HT as radioligand; type: cell-based
[5] = molecular target: 5-hydroxytryptamine receptor 2B (Homo sapiens, UniProt P41595); assay: Binding affinity to human cloned 5-HT2B receptor in HEK 293 cells using [3H]- -5-HT as radioligand; type: cell-based, HEK293
[6] = molecular target: 5-hydroxytryptamine receptor 7 (Homo sapiens, UniProt P34969); assay: Binding affinity to human cloned 5-hydroxytryptamine 7 receptor in HEK 293 cells using [3H]-5-CT as radioligand; type: cell-based, HEK293
[7] = molecular target: D(2) dopamine receptor (Homo sapiens, UniProt P14416); assay: Binding affinity to human cloned Dopamine receptor D2 in CHO cells using [125I]- iodosulpride as radioligand; type: cell-based
[8] = molecular target: 5-hydroxytryptamine receptor 1B (Homo sapiens, UniProt P28222); assay: Binding affinity to human cloned 5-hydroxytryptamine 1B receptor in CHO cells using [3H]5-HT as radioligand; type: cell-based
[9] = molecular target: 5-hydroxytryptamine receptor 2A (Homo sapiens, UniProt P28223); assay: Binding affinity to human cloned 5-hydroxytryptamine 2A receptor in HEK 293 cells using [3H]- ketanserin as radioligand; type: cell-based, HEK293
[10] = molecular target: T2, 5-hydroxytryptamine receptor 2C (Homo sapiens, UniProt P28335); assay: Binding affinity to human cloned 5-hydroxytryptamine 2C receptor in HEK 293 cells using [3H]- mesulergine as radioligand; type: cell-based, HEK293
T2 sequence (P28335 whole entry): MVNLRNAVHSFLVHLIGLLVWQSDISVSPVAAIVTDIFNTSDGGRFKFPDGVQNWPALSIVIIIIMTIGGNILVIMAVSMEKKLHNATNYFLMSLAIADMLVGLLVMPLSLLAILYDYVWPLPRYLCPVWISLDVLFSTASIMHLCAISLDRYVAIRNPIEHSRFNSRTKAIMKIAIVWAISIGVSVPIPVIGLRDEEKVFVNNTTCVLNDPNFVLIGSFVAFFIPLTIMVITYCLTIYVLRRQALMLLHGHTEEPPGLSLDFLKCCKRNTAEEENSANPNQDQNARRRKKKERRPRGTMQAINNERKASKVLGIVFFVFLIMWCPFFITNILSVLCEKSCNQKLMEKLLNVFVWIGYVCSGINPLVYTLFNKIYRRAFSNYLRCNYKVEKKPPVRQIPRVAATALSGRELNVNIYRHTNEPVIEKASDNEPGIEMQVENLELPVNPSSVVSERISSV

[11] = molecular target: D(3) dopamine receptor (Homo sapiens, UniProt P35462); assay: Binding affinity to human cloned Dopamine receptor D3 in CHO cells using [125I]- iodosulpride as radioligand; type: cell-based
[12] = molecular target: T3, 5-hydroxytryptamine receptor 1A (Homo sapiens, UniProt P08908); assay: Binding affinity to human cloned 5-hydroxytryptamine 1A receptor in HEK 293 cells using [3H]-8-OH- DPAT as radioligand; type: cell-based, HEK293
T3 sequence (P08908 whole entry): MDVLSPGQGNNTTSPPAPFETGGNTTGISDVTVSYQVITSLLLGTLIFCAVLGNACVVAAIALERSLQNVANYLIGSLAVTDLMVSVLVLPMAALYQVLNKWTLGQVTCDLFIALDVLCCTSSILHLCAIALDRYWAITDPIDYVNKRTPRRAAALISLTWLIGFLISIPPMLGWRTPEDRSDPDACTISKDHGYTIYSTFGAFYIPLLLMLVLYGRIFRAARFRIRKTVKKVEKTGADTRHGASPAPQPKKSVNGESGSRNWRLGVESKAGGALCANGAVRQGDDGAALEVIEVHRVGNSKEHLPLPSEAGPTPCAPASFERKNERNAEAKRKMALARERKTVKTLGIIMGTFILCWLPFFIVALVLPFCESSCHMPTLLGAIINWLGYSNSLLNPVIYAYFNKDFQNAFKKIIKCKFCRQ

[13] = molecular target: T1, 5-hydroxytryptamine receptor 6; assay: Binding affinity to human cloned 5-hydroxytryptamine 6 receptor in HeLa cells using [3H]- LSD as radioligand; type: cell-based

Chain of 5-hydroxytryptamine receptor 7 (P34969 whole entry): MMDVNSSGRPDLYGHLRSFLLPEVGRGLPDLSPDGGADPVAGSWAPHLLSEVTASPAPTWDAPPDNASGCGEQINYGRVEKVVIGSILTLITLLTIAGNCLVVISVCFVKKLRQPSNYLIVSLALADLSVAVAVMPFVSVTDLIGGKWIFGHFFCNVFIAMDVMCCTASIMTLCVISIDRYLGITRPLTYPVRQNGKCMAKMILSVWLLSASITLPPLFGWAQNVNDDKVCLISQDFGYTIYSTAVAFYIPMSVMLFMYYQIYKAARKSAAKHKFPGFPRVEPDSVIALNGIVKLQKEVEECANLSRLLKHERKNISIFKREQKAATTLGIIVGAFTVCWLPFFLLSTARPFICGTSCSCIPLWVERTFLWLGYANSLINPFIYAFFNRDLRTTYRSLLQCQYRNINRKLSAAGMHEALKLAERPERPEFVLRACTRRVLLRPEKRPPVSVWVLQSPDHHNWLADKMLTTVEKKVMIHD
Chain of 5-hydroxytryptamine receptor 2A (P28223 whole entry): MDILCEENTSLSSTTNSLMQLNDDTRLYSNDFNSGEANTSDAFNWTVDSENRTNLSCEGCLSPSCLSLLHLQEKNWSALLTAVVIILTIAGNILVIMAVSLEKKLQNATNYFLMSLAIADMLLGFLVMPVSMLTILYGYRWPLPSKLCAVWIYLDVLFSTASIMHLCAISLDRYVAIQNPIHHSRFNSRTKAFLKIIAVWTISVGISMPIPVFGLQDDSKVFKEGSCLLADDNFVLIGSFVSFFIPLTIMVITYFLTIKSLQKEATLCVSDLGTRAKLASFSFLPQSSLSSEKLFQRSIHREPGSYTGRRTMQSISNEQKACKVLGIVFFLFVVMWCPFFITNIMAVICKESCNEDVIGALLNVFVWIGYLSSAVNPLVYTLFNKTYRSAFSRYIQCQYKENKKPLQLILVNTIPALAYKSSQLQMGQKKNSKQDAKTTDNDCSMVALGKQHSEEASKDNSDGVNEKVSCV
Chain of 5-hydroxytryptamine receptor 2B (P41595 whole entry): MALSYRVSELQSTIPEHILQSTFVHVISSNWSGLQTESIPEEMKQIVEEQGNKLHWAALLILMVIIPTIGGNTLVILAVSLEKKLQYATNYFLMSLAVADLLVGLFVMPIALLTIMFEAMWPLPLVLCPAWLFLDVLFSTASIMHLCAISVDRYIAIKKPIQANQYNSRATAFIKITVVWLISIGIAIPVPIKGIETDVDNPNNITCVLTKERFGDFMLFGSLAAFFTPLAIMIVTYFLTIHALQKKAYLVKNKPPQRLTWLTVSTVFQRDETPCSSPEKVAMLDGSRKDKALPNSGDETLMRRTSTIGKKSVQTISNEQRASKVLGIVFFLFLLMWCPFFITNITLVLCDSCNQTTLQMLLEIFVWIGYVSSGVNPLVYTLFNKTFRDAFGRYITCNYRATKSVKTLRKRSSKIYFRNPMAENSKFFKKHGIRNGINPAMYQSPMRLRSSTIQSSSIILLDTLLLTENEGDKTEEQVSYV
T1 sequence (P50406 whole entry): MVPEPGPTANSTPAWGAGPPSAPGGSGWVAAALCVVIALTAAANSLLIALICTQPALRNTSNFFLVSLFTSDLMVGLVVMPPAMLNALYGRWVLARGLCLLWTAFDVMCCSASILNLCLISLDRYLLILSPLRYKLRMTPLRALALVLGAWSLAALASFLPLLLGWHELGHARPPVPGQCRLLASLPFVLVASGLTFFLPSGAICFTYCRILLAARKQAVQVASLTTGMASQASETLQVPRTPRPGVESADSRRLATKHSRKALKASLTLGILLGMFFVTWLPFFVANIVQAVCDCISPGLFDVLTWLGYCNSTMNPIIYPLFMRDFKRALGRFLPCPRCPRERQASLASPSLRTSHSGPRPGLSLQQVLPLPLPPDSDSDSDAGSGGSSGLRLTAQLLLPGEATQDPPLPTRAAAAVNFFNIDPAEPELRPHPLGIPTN
Chain of 5-hydroxytryptamine receptor 1B (P28222 whole entry): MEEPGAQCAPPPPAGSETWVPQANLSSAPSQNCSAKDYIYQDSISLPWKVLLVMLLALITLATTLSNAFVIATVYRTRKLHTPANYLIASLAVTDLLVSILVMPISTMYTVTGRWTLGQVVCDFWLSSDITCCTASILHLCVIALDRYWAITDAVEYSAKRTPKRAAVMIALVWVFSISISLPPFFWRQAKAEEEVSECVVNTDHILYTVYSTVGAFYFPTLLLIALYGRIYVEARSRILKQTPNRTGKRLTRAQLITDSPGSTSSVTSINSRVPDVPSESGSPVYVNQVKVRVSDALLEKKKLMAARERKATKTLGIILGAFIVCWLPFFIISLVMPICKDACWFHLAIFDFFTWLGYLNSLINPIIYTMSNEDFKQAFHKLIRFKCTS
Chain of D(2) dopamine receptor (P14416 whole entry): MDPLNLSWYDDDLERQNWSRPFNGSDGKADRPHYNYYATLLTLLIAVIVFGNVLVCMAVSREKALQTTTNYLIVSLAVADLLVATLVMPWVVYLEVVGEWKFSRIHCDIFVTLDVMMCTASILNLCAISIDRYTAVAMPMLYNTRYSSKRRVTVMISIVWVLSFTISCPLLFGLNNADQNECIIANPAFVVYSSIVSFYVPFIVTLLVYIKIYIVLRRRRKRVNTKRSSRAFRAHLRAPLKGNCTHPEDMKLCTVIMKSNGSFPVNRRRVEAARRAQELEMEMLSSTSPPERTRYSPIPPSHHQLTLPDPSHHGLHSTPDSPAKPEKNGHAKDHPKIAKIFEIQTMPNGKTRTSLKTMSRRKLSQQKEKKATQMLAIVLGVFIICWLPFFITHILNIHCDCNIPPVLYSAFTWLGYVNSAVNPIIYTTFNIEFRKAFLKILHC
Chain of 5-hydroxytryptamine receptor 1D (P28221 whole entry): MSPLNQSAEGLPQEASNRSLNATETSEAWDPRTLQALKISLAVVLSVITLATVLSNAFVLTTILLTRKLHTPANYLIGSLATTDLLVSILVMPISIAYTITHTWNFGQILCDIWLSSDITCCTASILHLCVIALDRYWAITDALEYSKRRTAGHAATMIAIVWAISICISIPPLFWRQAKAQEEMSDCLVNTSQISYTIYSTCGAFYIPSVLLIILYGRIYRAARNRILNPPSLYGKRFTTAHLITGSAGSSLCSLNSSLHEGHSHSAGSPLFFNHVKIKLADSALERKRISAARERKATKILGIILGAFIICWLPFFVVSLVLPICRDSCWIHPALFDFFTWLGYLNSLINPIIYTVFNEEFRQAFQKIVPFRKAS
Chain of D(3) dopamine receptor (P35462 whole entry): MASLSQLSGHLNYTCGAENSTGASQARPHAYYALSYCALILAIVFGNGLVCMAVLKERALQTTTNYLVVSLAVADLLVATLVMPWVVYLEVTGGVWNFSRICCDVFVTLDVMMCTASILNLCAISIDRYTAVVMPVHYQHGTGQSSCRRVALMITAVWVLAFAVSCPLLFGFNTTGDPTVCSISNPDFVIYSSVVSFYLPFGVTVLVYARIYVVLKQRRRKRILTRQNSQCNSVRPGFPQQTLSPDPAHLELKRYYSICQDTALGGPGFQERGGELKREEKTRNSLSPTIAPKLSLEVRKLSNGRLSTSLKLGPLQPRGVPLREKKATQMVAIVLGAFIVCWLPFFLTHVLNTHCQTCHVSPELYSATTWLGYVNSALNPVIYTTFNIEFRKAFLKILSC

SMILES | Selectivity ratio [1] | Ki [2] [nM] | Ki [3] [nM] | Ki [4] [nM] | Ki [5] [µM] | Ki [6] [µM] | Ki [7] [µM] | Ki [8] [nM] | Ki [9] [nM] | Ki [10] [nM] | Ki [11] [nM] | Ki [12] [nM] | Ki [13] [nM]
Cc1cnc2ccc(NS(=O)(=O)c3sc4ccc(Cl)cc4c3C)cc2c1N1CCNCC1 | 100 | 2.51 |  |  |  |  |  |  |  |  |  |  | 
Cc1sc2c(Cl)cc(Cl)cc2c1S(=O)(=O)Nc1ccc2nccc(N3CCNCC3)c2c1 | 200 | 2 |  |  |  |  |  |  |  |  |  |  | 
O=S(=O)(Nc1ccc2nccc(N3CCNCC3)c2c1)c1cc(Cl)cc(Cl)c1 |  | 25.1 |  |  |  |  |  |  |  |  |  |  | 
Cc1c(S(=O)(=O)Nc2ccc3nccc(N4CCNCC4)c3c2)oc2ccc(Cl)cc12 | 200 | 3.98 |  |  |  |  |  |  |  |  |  |  | 
Cc1cc(N2CCNCC2)c2cc(NS(=O)(=O)c3sc4ccc(Cl)cc4c3C)ccc2n1 | 250 | 1.26 | 1.26 | 316 | > 7.94 | > 5.01 | > 6.31 | 1260 | > 2000 | 2510 | > 1000 | 794 | 
Cc1sc2cc(Cl)cc(Cl)c2c1S(=O)(=O)Nc1ccc2nccc(N3CCNCC3)c2c1 | 40 | 7.94 |  |  |  |  |  |  |  |  |  |  | 
Cc1sc2c(Cl)cccc2c1S(=O)(=O)Nc1ccc2nccc(N3CCNCC3)c2c1 | 130 | 2 |  |  |  |  |  |  |  |  |  |  | 
Cc1c(S(=O)(=O)Nc2ccc3ncc(N4CCN(C)CC4)cc3c2)sc2ccc(Cl)cc12 |  | 79.4 |  |  |  |  |  |  |  |  |  |  | 
O=S(=O)(Nc1ccc2nccc(N3CCNCC3)c2c1)c1ccc(-c2ccccc2)cc1 | 320 | 0.501 | 0.501 | 158 | > 7.94 | > 10 | > 5.01 | 316 | 501 |  | > 3160 | 631 | 
Cc1cc(S(=O)(=O)Nc2ccc3nccc(N4CCNCC4)c3c2)c(C)cc1Cl | 500 | 1.26 |  |  |  |  |  |  |  |  |  |  | 
O=S(=O)(Nc1ccc2nccc(N3CCNCC3)c2c1)c1cccc2c(Cl)cccc12 | 80 | 3.16 |  |  |  |  |  |  |  |  |  |  | 
Cc1c(S(=O)(=O)Nc2ccc3nccc(N4CCNCC4)c3c2)sc2c(Cl)cc(Cl)cc12 | 25 | 6.31 |  |  |  |  |  |  |  |  |  |  | 
O=S(=O)(Nc1ccc2nccc(N3CCNCC3)c2c1)c1ccc2c(Cl)cccc2c1 | 160 | 1 | 1 | 200 | > 5.01 | 2.51 | > 5.01 | 631 | 1000 | > 2510 | 2510 | 158 | 
O=S(=O)(Nc1ccc2nccc(N3CCNCC3)c2c1)c1ccc(I)cc1 | 100 | 1.58 |  |  |  |  |  |  |  |  |  |  | 
CC(C)(C)c1ccc(S(=O)(=O)Nc2ccc3nccc(N4CCNCC4)c3c2)cc1 | 1260 | 0.631 |  | 1260 | > 5.01 | > 10 | > 10 | 1580 | > 3160 | > 2000 | > 5010 | 794 | 0.631

Continued, values first:

Selectivity ratio [1] | Ki [2] [nM] | Ki [3] [nM] | Ki [4] [nM] | Ki [5] [µM] | Ki [6] [µM] | Ki [7] [µM] | Ki [8] [nM] | Ki [9] [nM] | Ki [10] [nM] | Ki [11] [nM] | Ki [12] [nM] | Ki [13] [nM] | SMILES
160 | 1.58 |  |  |  |  |  |  |  |  |  |  |  | CC(C)c1c(S(=O)(=O)Nc2ccc3nccc(N4CCNCC4)c3c2)sc2ccc(Cl)cc12
1000 | 1.26 | 1.26 | 2510 | > 3.98 | > 5.01 | > 1 | 3160 | > 1260 | 1260 | > 10000 | > 3980 |  | CCc1c(S(=O)(=O)Nc2ccc3nccc(N4CCNCC4)c3c2)sc2ccc(Cl)cc12
250 | 1 | 1 | 398 | 1.26 | 1.58 | > 3.98 | 501 | > 2000 | 1260 | > 1580 | 251 |  | Cc1sc2ccc(Cl)cc2c1S(=O)(=O)Nc1ccc2nccc(N3CCNCC3)c2c1
320 | 1.26 | 1.26 | 398 | > 6.31 | > 5.01 | > 3.16 | 2510 | > 2510 | > 3980 | > 2000 | 1000 |  | Cc1c(S(=O)(=O)Nc2ccc3nccc(N4CCN[C@@H](C)C4)c3c2)sc2ccc(Cl)cc12
 | 31.6 |  |  |  |  |  |  |  |  |  |  |  | Cc1c(S(=O)(=O)Nc2ccc3nccc(N4C[C@@H](C)NC[C@@H]4C)c3c2)sc2ccc(Cl)cc12
130 | 2 |  |  |  |  |  |  |  |  |  |  |  | Cc1c(S(=O)(=O)Nc2ccc3nccc(N4CCN5CCC[C@H]5C4)c3c2)sc2ccc(Cl)cc12
250 | 1 | 1 | 251 | > 10 | 2 | > 7.94 | 501 | 1000 | > 5010 | > 3980 | 794 |  | Cc1c(S(=O)(=O)Nc2ccc3nccc(N4CCN(C)CC4)c3c2)sc2ccc(Cl)cc12
3200 | 2 |  |  |  |  |  |  |  |  |  |  |  | Cc1c(S(=O)(=O)Nc2ccc3nccc(N4CCN[C@H](C)C4)c3c2)sc2ccc(Cl)cc12
 | 20 |  |  |  |  |  |  |  |  |  |  |  | Cc1c(S(=O)(=O)Nc2ccc3nccc(N4CCN[C@H](C(C)C)C4)c3c2)sc2ccc(Cl)cc12
320 | 2 | 2 | 631 | > 5.01 | > 7.94 | > 10 | 2000 | > 2510 | > 2510 | > 1580 | 1000 |  | Cc1c(S(=O)(=O)Nc2ccc3nccc(N4CCNCC4)c3c2)sc2ccc(Cl)cc12
160 | 5.01 |  |  |  |  |  |  |  |  |  |  |  | Cc1c(S(=O)(=O)Nc2ccc3nccc(N4C[C@@H](C)N[C@@H](C)C4)c3c2)sc2ccc(Cl)cc12
